BindingDB's records for PubMed 11160644 (Merck Frosst Centre For Therapeutic Research, 2001)

Molecular target: T1, Solute carrier organic anion transporter family member 1B1 (Homo sapiens, UniProt Q9Y6L6)
T1 sequence (Q9Y6L6 whole entry): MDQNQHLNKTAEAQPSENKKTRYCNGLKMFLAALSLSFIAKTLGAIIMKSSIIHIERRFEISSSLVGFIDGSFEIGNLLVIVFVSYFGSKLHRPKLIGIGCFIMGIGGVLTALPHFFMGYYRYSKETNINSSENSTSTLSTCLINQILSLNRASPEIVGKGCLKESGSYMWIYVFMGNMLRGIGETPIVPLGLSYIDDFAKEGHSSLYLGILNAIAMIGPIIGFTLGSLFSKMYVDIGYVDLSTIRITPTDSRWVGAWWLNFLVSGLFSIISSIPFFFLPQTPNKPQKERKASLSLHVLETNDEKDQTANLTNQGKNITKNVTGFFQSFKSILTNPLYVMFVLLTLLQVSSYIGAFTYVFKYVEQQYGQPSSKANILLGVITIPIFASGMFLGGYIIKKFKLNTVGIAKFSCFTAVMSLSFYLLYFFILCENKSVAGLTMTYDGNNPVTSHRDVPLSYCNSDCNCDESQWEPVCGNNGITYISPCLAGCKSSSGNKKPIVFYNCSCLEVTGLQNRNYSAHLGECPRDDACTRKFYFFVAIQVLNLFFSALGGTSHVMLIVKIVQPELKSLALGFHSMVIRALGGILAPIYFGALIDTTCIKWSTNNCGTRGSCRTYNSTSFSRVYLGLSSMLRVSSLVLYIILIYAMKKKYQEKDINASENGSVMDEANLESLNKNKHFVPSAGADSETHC

Ki [nM] | Structure (SMILES)
> 10000 | Cc1ccc(-c2ncc(Cl)cc2-c2ccc(S(C)(=O)=O)cc2)cn1
2 | COc1ccc2c(c1)c(CC(=O)O)c(C)n2C(=O)c1ccc(Cl)cc1 [indometacin]
